ChEMBL document CHEMBL4507298 (2021)

What was measured:
[1] = biological target: Histamine H1 receptor (Homo sapiens) (UniProt P35367); conditions: Compound concentration 10.0 uM
[2] = test system: Receptor-type tyrosine-protein kinase FLT3 (Homo sapiens), P36888 [UNDEFINED MUTATION]; conditions: Compound concentration 1000.0 nM
[3] = biological target: Vasopressin V2 receptor (Homo sapiens) (UniProt P30518); experiment: V2 (h) CEREP ligand profiling; conditions: Compound concentration 10.0 uM
[4] = biological target: Mitogen-activated protein kinase kinase kinase 3 (Homo sapiens) (UniProt Q99759); conditions: Compound concentration 1000.0 nM
[5] = biological target: CYP3A4 (Homo sapiens, UniProt P08684); experiment: CYP3A4 inhibition CEREP ligand profiling; conditions: compound concentration 10 uM
[6] = biological target: Phosphodiesterase 4 (Rattus norvegicus) (UniProt P14270+P14646+P14644+P54748); experiment: Rolipram CEREP ligand profiling; format: protein assay; conditions: Compound concentration 10.0 uM
[7] = biological target: C-X-C chemokine receptor type 4 (Homo sapiens) (UniProt P61073); experiment: CXCR4 (h) CEREP ligand profiling; conditions: Compound concentration 10.0 uM
[8] = biological target: Mitogen-activated protein kinase 1 (Homo sapiens) (UniProt P28482); conditions: Compound concentration 1000.0 nM
[9] = biological target: G protein-coupled receptor kinase 3 (Homo sapiens) (UniProt P35626); conditions: Compound concentration 1000.0 nM
[10] = biological target: cAMP-dependent protein kinase catalytic subunit PRKX (Homo sapiens) (UniProt P51817); conditions: Compound concentration 1000.0 nM
[11] = biological target: Kappa-type opioid receptor (Homo sapiens) (UniProt P41145); experiment: kappa (KOP) CEREP ligand profiling; conditions: Compound concentration 10.0 uM
[12] = test system: Phosphatidylinositol 4,5-bisphosphate 3-kinase catalytic subunit alpha isoform (Homo sapiens), P42336 [Q546K]; conditions: Compound concentration 1000.0 nM
[13] = biological target: Serine/threonine-protein kinase D2 (Homo sapiens) (UniProt Q9BZL6); conditions: Compound concentration 1000.0 nM
[14] = biological target: Receptor-interacting serine/threonine-protein kinase 4 (Homo sapiens) (UniProt P57078); conditions: Compound concentration 1000.0 nM
[15] = biological target: Serine/threonine-protein kinase Chk2 (Homo sapiens) (UniProt O96017); conditions: Compound concentration 1000.0 nM
[16] = biological target: Activin receptor type-1B (Homo sapiens) (UniProt P36896); conditions: Compound concentration 1000.0 nM
[17] = biological target: Tyrosine-protein kinase JAK2 (Homo sapiens) (UniProt O60674); conditions: Compound concentration 1000.0 nM
[18] = biological target: GABA-A receptor; anion channel (Homo sapiens) (UniProt P14867+P47870+P18507+P28472+P48169+Q99928+Q9UN88+P34903+O00591+O14764+Q8N1C3+P18505+P78334+P47869+P31644+Q16445); experiment: GABAA BZD (central) CEREP ligand profiling; format: protein-complex assay; conditions: Compound concentration 10.0 uM
[19] = biological target: Neuronal acetylcholine receptor; alpha4/beta2 (Homo sapiens) (UniProt P17787+P43681); experiment: N (neuronal) (alpha -BGTX-insensitive) (alpha 4 beta 2) CEREP ligand profiling; format: protein-complex assay; conditions: Compound concentration 10.0 uM
[20] = biological target: Serine/threonine-protein kinase pim-3 (Homo sapiens) (UniProt Q86V86); conditions: Compound concentration 1000.0 nM
[21] = biological target: Na+ channel (site 2), sodium channel alpha subunit (Homo sapiens, UniProt P35498+P35499+Q01118+Q14524+Q15858+Q99250+Q9NY46+Q9UI33+Q9UQD0+Q9Y5Y9); experiment: Na+ channel (site 2) CEREP ligand profiling; format: protein assay; conditions: compound concentration 10 uM
[22] = test system: Leucine-rich repeat serine/threonine-protein kinase 2 (Homo sapiens), Q5S007 [G2019S]; conditions: Compound concentration 1000.0 nM
[23] = biological target: Neuropeptide Y receptor type 1 (Homo sapiens) (UniProt P25929); experiment: Y1 (h) CEREP ligand profiling; conditions: Compound concentration 10.0 uM
[24] = biological target: Tyrosine-protein kinase Fgr (Homo sapiens) (UniProt P09769); conditions: Compound concentration 1000.0 nM
[25] = biological target: Cyclin-dependent kinase 2 (Homo sapiens) (UniProt P24941); conditions: Compound concentration 1000.0 nM
[26] = biological target: Serine/threonine-protein kinase SIK1 (Homo sapiens) (UniProt P57059); conditions: Compound concentration 1000.0 nM
[27] = biological target: Beta-adrenergic receptor kinase 1 (Homo sapiens) (UniProt P25098); conditions: Compound concentration 1000.0 nM
[28] = biological target: Insulin receptor-related protein (Homo sapiens) (UniProt P14616); conditions: Compound concentration 1000.0 nM
[29] = biological target: Voltage-gated L-type calcium channel (DHP site) (Homo sapiens, UniProt O60840+Q01668+Q13698+Q13936); experiment: Ca2+ channel (L, DHP site) CEREP ligand profiling; format: protein assay; conditions: compound concentration 10 uM
[30] = biological target: Cyclin-dependent kinase-like 5 (Homo sapiens) (UniProt O76039); conditions: Compound concentration 1000.0 nM
[31] = biological target: Urotensin-2 receptor (Homo sapiens) (UniProt Q9UKP6); experiment: UT (h) CEREP ligand profiling; conditions: Compound concentration 10.0 uM
[32] = biological target: Eukaryotic translation initiation factor 2-alpha kinase 1 (Homo sapiens) (UniProt Q9BQI3); conditions: Compound concentration 1000.0 nM
[33] = biological target: Type-1 angiotensin II receptor (Homo sapiens) (UniProt P30556); experiment: AT1 (h) CEREP ligand profiling; conditions: Compound concentration 10.0 uM
[34] = biological target: Acetylcholinesterase (Homo sapiens) (UniProt P22303); experiment: Acetylcholinesterase (h) CEREP ligand profiling; conditions: Compound concentration 10.0 uM
[35] = biological target: Serine/threonine-protein kinase ULK1 (Homo sapiens) (UniProt O75385); conditions: Compound concentration 1000.0 nM
[36] = biological target: Mitogen-activated protein kinase kinase kinase 19 (Homo sapiens) (UniProt Q56UN5); conditions: Compound concentration 1000.0 nM
[37] = biological target: Cysteinyl leukotriene receptor 1 (Homo sapiens) (UniProt Q9Y271); experiment: LTD4 (h) (CysLT1) CEREP ligand profiling; conditions: Compound concentration 10.0 uM
[38] = biological target: ALK tyrosine kinase receptor (Homo sapiens) (UniProt Q9UM73); conditions: Compound concentration 1000.0 nM
[39] = biological target: Prostaglandin F2-alpha receptor (Homo sapiens, UniProt P43088); experiment: Binding assay (PTGFR)
[40] = biological target: Mitogen-activated protein kinase kinase kinase 4 (Homo sapiens) (UniProt Q9Y6R4); conditions: Compound concentration 1000.0 nM
[41] = biological target: Serine/threonine-protein kinase PAK 3 (Homo sapiens) (UniProt O75914); conditions: Compound concentration 1000.0 nM
[42] = biological target: Ribosomal protein S6 kinase alpha-4 (Homo sapiens) (UniProt O75676); conditions: Compound concentration 1000.0 nM
[43] = biological target: Carbonic anhydrase 2 (Homo sapiens) (UniProt P00918); experiment: Carbonic anhydrase II (h) CEREP ligand profiling; conditions: Compound concentration 10.0 uM

Ribosomal protein S6 kinase alpha-4 (Homo sapiens), sequence (O75676 whole entry, looked up): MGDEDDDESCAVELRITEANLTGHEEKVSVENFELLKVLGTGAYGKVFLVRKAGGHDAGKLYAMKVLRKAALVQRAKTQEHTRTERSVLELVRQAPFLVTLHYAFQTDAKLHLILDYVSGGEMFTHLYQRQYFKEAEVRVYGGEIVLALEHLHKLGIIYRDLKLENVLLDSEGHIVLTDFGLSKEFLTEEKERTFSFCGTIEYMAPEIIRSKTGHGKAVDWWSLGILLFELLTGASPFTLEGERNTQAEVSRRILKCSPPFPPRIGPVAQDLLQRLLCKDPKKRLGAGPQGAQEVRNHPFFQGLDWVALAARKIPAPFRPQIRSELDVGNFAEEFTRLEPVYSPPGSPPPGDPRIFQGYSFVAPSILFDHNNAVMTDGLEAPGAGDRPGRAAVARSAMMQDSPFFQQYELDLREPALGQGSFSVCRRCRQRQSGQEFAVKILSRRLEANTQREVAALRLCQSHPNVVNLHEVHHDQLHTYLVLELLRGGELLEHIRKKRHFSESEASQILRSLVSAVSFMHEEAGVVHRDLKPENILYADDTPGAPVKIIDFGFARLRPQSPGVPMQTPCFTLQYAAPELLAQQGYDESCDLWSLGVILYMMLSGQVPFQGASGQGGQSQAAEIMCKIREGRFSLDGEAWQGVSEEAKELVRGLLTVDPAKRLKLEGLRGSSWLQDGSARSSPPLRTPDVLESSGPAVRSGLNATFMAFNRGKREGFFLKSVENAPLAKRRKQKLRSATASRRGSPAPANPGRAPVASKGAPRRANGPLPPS
Mitogen-activated protein kinase 1 (Homo sapiens), sequence (P28482 whole entry): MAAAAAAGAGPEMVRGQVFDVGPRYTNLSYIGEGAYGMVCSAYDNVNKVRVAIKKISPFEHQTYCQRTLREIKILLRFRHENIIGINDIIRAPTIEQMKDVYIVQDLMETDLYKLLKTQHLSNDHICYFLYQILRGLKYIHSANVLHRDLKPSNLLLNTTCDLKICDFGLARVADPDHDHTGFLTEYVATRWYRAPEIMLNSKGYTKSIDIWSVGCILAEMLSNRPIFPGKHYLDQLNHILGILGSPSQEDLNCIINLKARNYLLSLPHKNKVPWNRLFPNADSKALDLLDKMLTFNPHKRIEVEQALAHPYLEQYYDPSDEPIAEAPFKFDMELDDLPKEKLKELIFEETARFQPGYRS
Histamine H1 receptor (Homo sapiens), sequence (P35367 whole entry): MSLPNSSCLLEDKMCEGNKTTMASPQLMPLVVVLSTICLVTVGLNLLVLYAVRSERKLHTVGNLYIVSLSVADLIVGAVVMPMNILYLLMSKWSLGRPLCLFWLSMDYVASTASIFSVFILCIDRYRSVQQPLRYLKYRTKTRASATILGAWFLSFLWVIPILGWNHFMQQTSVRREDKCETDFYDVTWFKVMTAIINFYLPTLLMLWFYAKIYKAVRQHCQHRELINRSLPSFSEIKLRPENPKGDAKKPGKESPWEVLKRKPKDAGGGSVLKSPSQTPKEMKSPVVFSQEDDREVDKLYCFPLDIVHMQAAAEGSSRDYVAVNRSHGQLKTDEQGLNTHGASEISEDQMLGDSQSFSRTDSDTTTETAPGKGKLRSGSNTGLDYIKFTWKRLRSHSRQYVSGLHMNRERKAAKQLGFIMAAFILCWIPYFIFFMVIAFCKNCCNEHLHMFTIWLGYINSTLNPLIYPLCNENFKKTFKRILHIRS
cAMP-dependent protein kinase catalytic subunit PRKX (Homo sapiens), sequence (P51817 whole entry): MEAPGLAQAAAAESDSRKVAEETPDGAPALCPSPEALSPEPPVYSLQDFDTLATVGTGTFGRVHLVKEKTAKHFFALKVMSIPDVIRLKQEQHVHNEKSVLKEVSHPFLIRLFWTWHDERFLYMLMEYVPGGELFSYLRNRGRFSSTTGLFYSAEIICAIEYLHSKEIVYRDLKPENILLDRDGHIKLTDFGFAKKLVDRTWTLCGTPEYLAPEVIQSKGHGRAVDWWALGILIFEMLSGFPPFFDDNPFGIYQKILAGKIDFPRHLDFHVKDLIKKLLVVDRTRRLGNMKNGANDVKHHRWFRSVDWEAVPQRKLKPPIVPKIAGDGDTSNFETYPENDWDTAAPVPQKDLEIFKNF
Eukaryotic translation initiation factor 2-alpha kinase 1 (Homo sapiens), sequence (Q9BQI3 whole entry): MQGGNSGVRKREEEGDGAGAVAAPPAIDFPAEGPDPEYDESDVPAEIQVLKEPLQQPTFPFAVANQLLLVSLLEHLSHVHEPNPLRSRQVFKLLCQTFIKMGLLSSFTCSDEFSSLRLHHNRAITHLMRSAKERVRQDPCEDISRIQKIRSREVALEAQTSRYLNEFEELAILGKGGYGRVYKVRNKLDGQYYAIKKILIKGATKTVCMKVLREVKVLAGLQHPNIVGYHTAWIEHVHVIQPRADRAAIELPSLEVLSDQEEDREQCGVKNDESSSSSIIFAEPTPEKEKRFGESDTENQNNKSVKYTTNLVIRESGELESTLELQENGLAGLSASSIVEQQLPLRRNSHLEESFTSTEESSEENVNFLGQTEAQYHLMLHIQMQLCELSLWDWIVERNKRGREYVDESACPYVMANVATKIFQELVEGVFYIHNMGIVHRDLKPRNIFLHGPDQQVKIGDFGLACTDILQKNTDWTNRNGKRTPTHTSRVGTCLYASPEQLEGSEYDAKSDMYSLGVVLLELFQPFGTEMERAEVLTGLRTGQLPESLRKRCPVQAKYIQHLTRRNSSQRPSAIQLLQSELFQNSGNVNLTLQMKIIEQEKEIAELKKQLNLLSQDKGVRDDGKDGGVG
C-X-C chemokine receptor type 4 (Homo sapiens), sequence (P61073 whole entry): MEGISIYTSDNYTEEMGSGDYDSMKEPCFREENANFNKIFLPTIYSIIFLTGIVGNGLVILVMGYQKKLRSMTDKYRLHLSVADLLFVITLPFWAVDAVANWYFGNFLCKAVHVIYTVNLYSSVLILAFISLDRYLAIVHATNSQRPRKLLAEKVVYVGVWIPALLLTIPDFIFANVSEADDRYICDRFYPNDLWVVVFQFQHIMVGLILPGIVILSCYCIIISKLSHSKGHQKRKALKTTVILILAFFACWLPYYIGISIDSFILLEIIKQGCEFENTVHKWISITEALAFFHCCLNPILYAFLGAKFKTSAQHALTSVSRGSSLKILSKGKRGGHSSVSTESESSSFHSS
Activin receptor type-1B (Homo sapiens), sequence (P36896 whole entry): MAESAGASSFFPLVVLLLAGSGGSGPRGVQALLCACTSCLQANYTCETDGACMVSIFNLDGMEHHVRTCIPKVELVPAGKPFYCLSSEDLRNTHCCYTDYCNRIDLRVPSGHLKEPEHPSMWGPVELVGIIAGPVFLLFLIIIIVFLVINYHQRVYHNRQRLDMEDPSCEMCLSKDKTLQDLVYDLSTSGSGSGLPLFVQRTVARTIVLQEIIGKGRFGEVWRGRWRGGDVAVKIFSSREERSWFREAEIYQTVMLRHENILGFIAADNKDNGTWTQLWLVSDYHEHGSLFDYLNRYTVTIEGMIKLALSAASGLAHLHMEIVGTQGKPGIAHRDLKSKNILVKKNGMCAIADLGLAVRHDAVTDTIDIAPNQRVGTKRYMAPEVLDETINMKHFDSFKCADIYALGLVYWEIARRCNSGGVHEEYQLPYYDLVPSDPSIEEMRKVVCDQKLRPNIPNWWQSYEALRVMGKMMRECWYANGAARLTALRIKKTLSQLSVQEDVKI
Serine/threonine-protein kinase SIK1 (Homo sapiens), sequence (P57059 whole entry): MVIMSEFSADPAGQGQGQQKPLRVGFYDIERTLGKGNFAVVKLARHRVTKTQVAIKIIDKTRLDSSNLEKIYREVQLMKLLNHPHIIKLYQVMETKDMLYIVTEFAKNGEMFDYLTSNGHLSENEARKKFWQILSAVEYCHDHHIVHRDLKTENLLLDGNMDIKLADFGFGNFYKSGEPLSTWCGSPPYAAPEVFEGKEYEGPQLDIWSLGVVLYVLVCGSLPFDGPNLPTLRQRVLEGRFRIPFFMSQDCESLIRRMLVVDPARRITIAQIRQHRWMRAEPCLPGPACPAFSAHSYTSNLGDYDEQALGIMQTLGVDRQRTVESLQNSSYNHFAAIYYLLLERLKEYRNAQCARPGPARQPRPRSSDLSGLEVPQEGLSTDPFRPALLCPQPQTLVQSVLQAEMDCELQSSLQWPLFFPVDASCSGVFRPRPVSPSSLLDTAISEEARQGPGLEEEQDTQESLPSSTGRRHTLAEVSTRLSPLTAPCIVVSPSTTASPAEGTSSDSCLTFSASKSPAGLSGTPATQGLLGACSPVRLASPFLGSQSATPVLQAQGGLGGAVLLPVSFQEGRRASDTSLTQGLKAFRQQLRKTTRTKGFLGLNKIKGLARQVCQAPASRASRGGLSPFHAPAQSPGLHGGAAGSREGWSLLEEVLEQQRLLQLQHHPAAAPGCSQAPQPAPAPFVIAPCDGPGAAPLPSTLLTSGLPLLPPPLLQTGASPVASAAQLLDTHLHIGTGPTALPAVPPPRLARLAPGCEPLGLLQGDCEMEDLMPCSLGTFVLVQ
Cysteinyl leukotriene receptor 1 (Homo sapiens), sequence (Q9Y271 whole entry): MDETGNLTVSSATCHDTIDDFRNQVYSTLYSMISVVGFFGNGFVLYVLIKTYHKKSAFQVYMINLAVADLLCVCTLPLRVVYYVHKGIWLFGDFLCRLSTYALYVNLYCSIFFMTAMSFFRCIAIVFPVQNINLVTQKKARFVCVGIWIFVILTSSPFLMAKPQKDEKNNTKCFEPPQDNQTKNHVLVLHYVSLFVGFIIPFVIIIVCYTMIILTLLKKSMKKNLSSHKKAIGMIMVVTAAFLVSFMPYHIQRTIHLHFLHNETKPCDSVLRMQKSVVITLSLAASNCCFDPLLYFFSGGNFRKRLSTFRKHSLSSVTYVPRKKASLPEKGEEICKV
Type-1 angiotensin II receptor (Homo sapiens), sequence (P30556 whole entry): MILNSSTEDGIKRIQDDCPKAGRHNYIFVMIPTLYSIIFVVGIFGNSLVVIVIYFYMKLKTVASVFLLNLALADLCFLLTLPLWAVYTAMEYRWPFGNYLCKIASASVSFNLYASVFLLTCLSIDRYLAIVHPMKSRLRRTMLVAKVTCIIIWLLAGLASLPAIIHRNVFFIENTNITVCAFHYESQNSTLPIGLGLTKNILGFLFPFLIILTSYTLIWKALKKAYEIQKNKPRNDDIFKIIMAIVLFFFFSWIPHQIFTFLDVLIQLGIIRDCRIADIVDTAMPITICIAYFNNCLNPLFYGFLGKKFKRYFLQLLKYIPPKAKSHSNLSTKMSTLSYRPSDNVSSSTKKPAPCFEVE

Compound O=C(c1ccc(F)cc1)N1CC(COc2ccc(Br)cc2)(C(=O)O)C1 [PF-04475866] has an inhibition [1] of -4.38%.
In the case of COc1ccc2cc(OCC3(C(=O)O)CN(C(=O)c4ccc(F)cc4)C3)ccc2c1 [PF-04418948], the residual activity [2] is reported as 91%, the inhibition [3] is reported as -1% and the residual activity [4] is reported as 97%. For the same compound, the inhibition at 10 µM [5] was 17% (not active), the inhibition [6] was 3% and the inhibition [7] was 4%. For the same compound, the residual activity [8] was 97%, the residual activity [9] was 67% and the residual activity [10] was 90%. The inhibition [11] was 46%, the residual activity [12] was 42% and the residual activity [13] was 93%. The residual activity [14] was 66%, the residual activity [15] was 93% and the residual activity [16] was 78%. The residual activity [17] was 89%, the inhibition [18] was 10% and the inhibition [19] was -10%. For the same compound, the residual activity [20] was 98%, the inhibition at 10 µM [21] was 9% (not active) and the residual activity [22] was 84%. The inhibition [23] was 1%, the residual activity [24] was 96% and the residual activity [25] was 91%. It also gave a residual activity [26] of 97%, a residual activity [27] of 72% and a residual activity [28] of 67%. For the same compound, the inhibition at 10 µM [29] was -3% (not active), the residual activity [30] was 97% and the inhibition [31] was 14%. For the same compound, the residual activity [32] was 94%, the inhibition [33] was 1% and the inhibition [34] was 45%. It also gave a residual activity [35] of 92%, a residual activity [36] of 82% and an inhibition [37] of 2%. For the same compound, the residual activity [38] was 79%, the Ki [39] was > 10 µM (not active) and the residual activity [40] was 65%. For the same compound, the residual activity [41] was 94%, the residual activity [42] was 85% and the inhibition [43] was 9%.
